Test results: PubChem BioAssay AID1035470 (Broad Institute, 2014)
Results filed as inconclusive are left out. Calls of active or inactive are those of the source.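 Rule for the calls: active = compound lowering the normal-ribosome reporter at least twice as much as the humanized-ribosome reporter, growth loss under a set limit; inconclusive = no clear call, values can overlap the other calls; inactive = the rest.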

Tested on: E. coli WT-GFP vs G2058-humanized RFP, fluorescence, 24 h
Experiment: E. coli strain growth, wild-type against G2058 humanized RFP mutant – G2058 mutant RFP vs wild-type GFP, cherry-pick, two tests, dose response (AID 1035470)
[1] = E. coli WT-GFP vs G2058-humanized RFP mixed culture, total growth OD600, 24 h
[2] = measured here: G2058 humanized mutant RFP growth

| SMILES | AC50 | AC50 [1] [µM] | AC50 [2] [µM] |
| --- | --- | --- | --- |
| C=CCSc1cc(C)nc2c(-c3ccccc3)c(C)nn12 | > 100 µM (inactive) |  |  |
| Cc1ccc(Cn2cnc3ccccc32)cc1 | > 100 µM (inactive) |  |  |
| Cc1ccccc1NS(=O)(=O)c1cc(C(=O)NCCC2=CCCCC2)ccc1C | > 100 µM (inactive) |  |  |
| O=C(NC1CCCC(C(F)(F)F)C1)c1ccc([N+](=O)[O-])o1 (centres undefined) | > 100 µM (inactive) |  |  |
| Cc1ccc(S(=O)(=O)Nc2ccccc2CNc2cccc(C)n2)cc1 | > 100 µM (inactive) | > 100 |  |
| CCc1ccc2nc(N(CCCN(C)C)C(=O)c3ccc4c(c3)OCCO4)sc2c1 | > 100 µM (inactive) | > 100 |  |
| COc1cc(NC(=O)COC(=O)CC(C)(C)C)c(C)cc1[N+](=O)[O-] | > 100 µM (inactive) | > 100 |  |
| O=C(CCCn1c(=S)[nH]c2ccsc2c1=O)Nc1ccc2c(c1)OCCO2 | > 100 µM (inactive) |  |  |
| CCOc1ccccc1OCCCC(=O)N1CCN(S(=O)(=O)c2cc(F)ccc2F)CC1 | > 100 µM (inactive) |  |  |
| CCC(C(=O)NC1CCCC1)n1c(-c2ccnc3ccccc23)nc2ccccc21 (centres undefined) |  | > 100 |  |
| O=C(Nc1nc2ccccc2n1CCN1CCOCC1)c1ccccc1 | > 100 µM (inactive) |  |  |
| Cc1cccc(SCC(=O)Nc2ccccc2[N+](=O)[O-])c1 | > 100 µM (inactive) | > 100 |  |
| Cc1cccc(-c2ccc([C@@H]3[C@@H](CO)N4CCCCN(S(=O)(=O)c5ccccc5C)C[C@H]34)cc2)c1 |  | > 100 |  |
| Fc1ccc(-c2nc3ccc(Cl)cn3c2Cc2cccc(Cl)c2)cc1 |  | > 100 |  |
| CN(C)CCCNc1ccc(-c2cc(Nc3cccc(Cl)c3)ncn2)cn1 | > 100 µM (inactive) |  |  |
| Cc1c(C(=O)O)oc2ccc(S(=O)(=O)NC3CCCCCCC3)cc12 | > 100 µM (inactive) |  |  |
| COc1ccc(-c2nc3ccc(Cl)cn3c2Cc2cccc(F)c2)cc1OC | > 100 µM (inactive) |  |  |
| CCCN(CC(=O)Nc1ccccc1C)C(=O)c1cccc(S(=O)(=O)N2CCc3ccccc3C2)c1 | > 100 µM (inactive) | > 100 |  |
| O=C(CCc1ccccc1)Nc1sc2c(c1C(=O)O)CCCC2 | > 100 µM (inactive) |  |  |
| Cc1ccc(-c2c[n+](CC(=O)Nc3ccccc3)c3n2CCC3)cc1 |  |  | > 100 |
| Nc1ccccc1Sc1ccc(C(F)(F)F)cc1[N+](=O)[O-] | > 100 µM (inactive) | > 100 | > 100 |
| Cc1cccc(NC(=O)c2nc(S(=O)(=O)Cc3ccccc3)ncc2Cl)c1 |  | > 100 |  |
| COc1ccccc1N(C)S(=O)(=O)c1ccc(Cl)c(C(=O)NC2=NCCS2)c1 |  |  | 46.3 |

| SMILES | AC50 | AC50 [1] [µM] | AC50 [2] [µM] |
| --- | --- | --- | --- |
| COc1cc(OC)c(NS(=O)(=O)c2cccc(C(=O)OCC(=O)NCC3CCCO3)c2)cc1Cl (centres undefined) |  | > 100 |  |
| O=c1[nH]c2cc([N+](=O)[O-])ccc2c2ccccc12 | > 100 µM (inactive) | > 100 | > 100 |
| CCN(CC)S(=O)(=O)c1ccc(N2CCCC2)c(NC(=O)c2ccccc2OC)c1 | > 100 µM (inactive) |  |  |
| CCN(CC)CCn1c(SCC(=O)Nc2cccc(OC)c2)nc2c(sc3ccccc32)c1=O | > 100 µM (inactive) | > 100 |  |
| COc1cccc(NC(=O)COC(=O)Cc2ccc(Br)cc2)c1 | > 100 µM (inactive) | > 100 |  |
| CC(C)(Nc1ccccc1)C(=O)c1ccccc1 |  | > 100 |  |
| O=C(O)CCn1c(SCc2cccc3ccccc23)nc2ccccc21 | > 100 µM (inactive) | > 100 |  |
| FC(F)(F)c1ccc(Cl)c(-n2c(Cc3cccs3)n[nH]c2=S)c1 | > 100 µM (inactive) |  |  |
| Cc1ccc(S(=O)(=O)N2CC(=O)Nc3ccccc32)cc1C | > 100 µM (inactive) | > 100 |  |
| CC(C)n1nnnc1C1c2ccccc2C(=O)N1CCOc1ccccc1 (centres undefined) | > 100 µM (inactive) |  |  |
| COC(=O)C[C@H]1C[C@@H]2c3cc(NC(=O)Nc4ccc(C(F)(F)F)cc4)ccc3O[C@@H]2[C@H](CO)O1 | > 100 µM (inactive) |  |  |
| CC(C)(C)NC(=O)C(c1ccncc1)N(Cc1ccc(F)cc1)C(=O)c1ccc(-c2ccccc2)[nH]1 (centres undefined) |  | > 100 |  |
| C[n+]1ccccc1/C=C/c1cc(Br)ccc1O | > 100 µM (inactive) |  |  |
| Nc1ncncc1-c1ccc2ccccc2c1 | > 100 µM (inactive) |  | 48.9 |
| OC(COc1ccc(Cl)cc1)CN1CCN(c2ccccn2)CC1 (centres undefined) | > 100 µM (inactive) |  |  |
| CN1C(=O)c2cccc3c(S(=O)(=O)NCCc4ccccc4)ccc1c23 | > 100 µM (inactive) | > 100 |  |
| CCCNc1ccc(C(=O)OCC)cc1[N+](=O)[O-] | > 100 µM (inactive) | > 100 |  |
| COc1ccc(-c2noc(CCc3ccccc3)n2)cc1 | > 100 µM (inactive) |  |  |
| Cc1ccc(SCC(=O)Nc2ccc(S(=O)(=O)Nc3nccs3)cc2)cc1 | > 100 µM (inactive) | > 100 |  |
| COc1ccc(C#Cc2ccc([C@H]3[C@@H](CO)N4CCCCN(C(=O)Nc5cccc(F)c5)C[C@H]34)cc2)cc1 |  | > 100 |  |
| CC[n+]1c(C)cc2c(sc3ccccc32)c1C |  | > 100 | > 100 |
| CC(C)(CC(=O)O)CC(=O)NCc1c(Cl)cccc1Sc1ccc(Cl)cc1 | > 100 µM (inactive) |  |  |
| O=C1CSC(c2cccnc2)N1Cc1ccc(Cl)c(Cl)c1 (centres undefined) |  | > 100 |  |
